Data published in ChEMBL document CHEMBL3132769, “Fragment growing to retain or alter the selectivity of anchored kinase hinge-binding fragments” (Medchemcomm, 2014).

How the values were obtained:
[1] = target: Aurora kinase B (Homo sapiens) (UniProt Q96GD4); assay: Inhibition of human full length AurB expressed in baculovirus assessed as substrate phosphorylation using fluorescence-labelled peptides as substrate at 420 uM after 90 mins by microfluidic peptide phosphorylation assay
[2] = target: Ribosomal protein S6 kinase alpha-1 (Homo sapiens) (UniProt Q15418); conditions: 9 uM
Description: Inhibition of human full length RSK1 expressed in baculovirus assessed as substrate phosphorylation using fluorescence-labelled peptides as substrate at 9 uM after 90 mins by microfluidic peptide phosphorylation assay

[3] = target: T1, Inhibitor of nuclear factor kappa-B kinase subunit beta (Homo sapiens) (UniProt O14920); assay: Inhibition of human full length IKK beta expressed in baculovirus assessed as substrate phosphorylation using fluorescence-labelled peptides as substrate at 95 uM after 90 mins by microfluidic peptide phosphorylation assay
T1 sequence (whole entry): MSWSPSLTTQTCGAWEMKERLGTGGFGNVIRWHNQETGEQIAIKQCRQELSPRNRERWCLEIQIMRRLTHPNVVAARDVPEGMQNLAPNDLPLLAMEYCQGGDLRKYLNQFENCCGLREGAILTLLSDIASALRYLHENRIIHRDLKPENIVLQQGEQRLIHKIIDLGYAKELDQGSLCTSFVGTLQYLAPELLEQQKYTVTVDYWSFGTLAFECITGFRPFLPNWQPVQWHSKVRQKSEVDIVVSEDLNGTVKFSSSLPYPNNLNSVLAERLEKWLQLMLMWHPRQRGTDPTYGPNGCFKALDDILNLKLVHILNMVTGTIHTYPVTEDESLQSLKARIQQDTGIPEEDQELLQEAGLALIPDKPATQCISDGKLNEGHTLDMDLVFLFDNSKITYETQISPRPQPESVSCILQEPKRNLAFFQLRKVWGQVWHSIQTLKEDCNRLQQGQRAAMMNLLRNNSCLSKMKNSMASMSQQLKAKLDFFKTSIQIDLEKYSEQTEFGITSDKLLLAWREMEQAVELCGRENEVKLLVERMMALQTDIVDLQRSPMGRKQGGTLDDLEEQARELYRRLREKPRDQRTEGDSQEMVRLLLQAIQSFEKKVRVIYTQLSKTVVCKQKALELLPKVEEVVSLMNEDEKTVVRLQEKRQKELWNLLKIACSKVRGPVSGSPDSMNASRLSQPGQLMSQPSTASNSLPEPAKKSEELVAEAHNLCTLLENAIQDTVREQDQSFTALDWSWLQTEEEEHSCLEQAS

[4] = target: MAP/microtubule affinity-regulating kinase 3 (Homo sapiens) (UniProt P27448); assay: Inhibition of human full length c-TAK1 expressed in Escherichia coli cell assessed as substrate phosphorylation using fluorescence-labelled peptides as substrate at […] after 90 mins by microfluidic peptide phosphorylation assay
[5] = target: Ribosomal protein S6 kinase alpha-1 (Homo sapiens) (UniProt Q15418); assay: Inhibition of human full length RSK1 expressed in baculovirus assessed as substrate phosphorylation using fluorescence-labelled peptides as substrate at […] after 90 mins by microfluidic peptide phosphorylation assay
[6] = target: T2, Calcium/calmodulin-dependent protein kinase type IV (Homo sapiens) (UniProt Q16566); assay: Inhibition of human full length CAMK4 expressed in baculovirus assessed as substrate phosphorylation using fluorescence-labelled peptides as substrate at 8 uM after 90 mins by microfluidic peptide phosphorylation assay
T2 sequence (whole entry): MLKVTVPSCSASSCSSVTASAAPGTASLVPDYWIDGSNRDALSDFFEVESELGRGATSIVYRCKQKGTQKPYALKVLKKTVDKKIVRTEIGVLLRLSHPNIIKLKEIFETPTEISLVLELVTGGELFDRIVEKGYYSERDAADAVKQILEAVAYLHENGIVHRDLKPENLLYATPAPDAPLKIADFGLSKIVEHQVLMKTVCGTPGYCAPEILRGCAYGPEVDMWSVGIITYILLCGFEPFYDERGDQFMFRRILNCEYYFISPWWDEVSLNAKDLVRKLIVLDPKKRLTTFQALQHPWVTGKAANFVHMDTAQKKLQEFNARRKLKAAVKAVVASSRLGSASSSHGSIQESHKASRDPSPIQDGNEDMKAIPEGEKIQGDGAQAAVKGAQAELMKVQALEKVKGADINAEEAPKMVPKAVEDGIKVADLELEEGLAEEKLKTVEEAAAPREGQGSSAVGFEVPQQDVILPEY

[7] = target: T3, Serine/threonine-protein kinase Sgk2 (Homo sapiens) (UniProt Q9HBY8); assay: Inhibition of human full length SGK2 expressed in baculovirus assessed as substrate phosphorylation using fluorescence-labelled peptides as substrate at 8 uM after 90 mins by microfluidic peptide phosphorylation assay
T3 sequence (whole entry): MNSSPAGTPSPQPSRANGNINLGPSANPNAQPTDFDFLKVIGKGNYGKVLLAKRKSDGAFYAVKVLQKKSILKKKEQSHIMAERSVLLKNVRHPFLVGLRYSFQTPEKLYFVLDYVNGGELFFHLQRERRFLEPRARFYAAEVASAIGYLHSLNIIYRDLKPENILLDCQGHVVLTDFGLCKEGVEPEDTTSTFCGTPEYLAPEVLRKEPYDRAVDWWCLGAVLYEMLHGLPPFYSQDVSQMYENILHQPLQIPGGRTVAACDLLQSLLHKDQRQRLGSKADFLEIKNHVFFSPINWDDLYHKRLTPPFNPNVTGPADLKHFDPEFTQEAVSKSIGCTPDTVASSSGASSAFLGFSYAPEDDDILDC

[8] = target: Aurora kinase B (Homo sapiens) (UniProt Q96GD4); assay: Inhibition of human full length AurB expressed in baculovirus assessed as substrate phosphorylation using fluorescence-labelled peptides as substrate at 8 uM after 90 mins by microfluidic peptide phosphorylation assay
[9] = target: T4, Protein kinase C zeta type (Homo sapiens) (UniProt Q05513); assay: Inhibition of human full length PKC zeta expressed in baculovirus assessed as substrate phosphorylation using fluorescence-labelled peptides as substrate at 70 uM after 90 mins by microfluidic peptide phosphorylation assay
T4 sequence (whole entry): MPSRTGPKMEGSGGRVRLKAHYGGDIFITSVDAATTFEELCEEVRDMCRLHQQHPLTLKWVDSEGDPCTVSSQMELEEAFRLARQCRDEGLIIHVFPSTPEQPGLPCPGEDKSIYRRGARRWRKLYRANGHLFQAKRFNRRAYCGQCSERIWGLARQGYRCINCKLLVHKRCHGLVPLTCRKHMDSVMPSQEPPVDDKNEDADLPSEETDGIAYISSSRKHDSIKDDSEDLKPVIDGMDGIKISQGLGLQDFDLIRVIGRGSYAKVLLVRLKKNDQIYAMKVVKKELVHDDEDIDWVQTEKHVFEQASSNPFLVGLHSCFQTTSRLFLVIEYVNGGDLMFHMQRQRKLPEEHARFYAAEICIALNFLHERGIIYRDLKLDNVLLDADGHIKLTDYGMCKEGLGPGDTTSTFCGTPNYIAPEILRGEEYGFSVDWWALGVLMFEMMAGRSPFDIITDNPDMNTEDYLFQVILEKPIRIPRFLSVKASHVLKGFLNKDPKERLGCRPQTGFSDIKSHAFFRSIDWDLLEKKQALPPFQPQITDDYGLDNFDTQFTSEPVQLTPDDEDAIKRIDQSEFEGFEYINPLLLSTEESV

Ribosomal protein S6 kinase alpha-1 (Homo sapiens), sequence (Q15418 whole entry): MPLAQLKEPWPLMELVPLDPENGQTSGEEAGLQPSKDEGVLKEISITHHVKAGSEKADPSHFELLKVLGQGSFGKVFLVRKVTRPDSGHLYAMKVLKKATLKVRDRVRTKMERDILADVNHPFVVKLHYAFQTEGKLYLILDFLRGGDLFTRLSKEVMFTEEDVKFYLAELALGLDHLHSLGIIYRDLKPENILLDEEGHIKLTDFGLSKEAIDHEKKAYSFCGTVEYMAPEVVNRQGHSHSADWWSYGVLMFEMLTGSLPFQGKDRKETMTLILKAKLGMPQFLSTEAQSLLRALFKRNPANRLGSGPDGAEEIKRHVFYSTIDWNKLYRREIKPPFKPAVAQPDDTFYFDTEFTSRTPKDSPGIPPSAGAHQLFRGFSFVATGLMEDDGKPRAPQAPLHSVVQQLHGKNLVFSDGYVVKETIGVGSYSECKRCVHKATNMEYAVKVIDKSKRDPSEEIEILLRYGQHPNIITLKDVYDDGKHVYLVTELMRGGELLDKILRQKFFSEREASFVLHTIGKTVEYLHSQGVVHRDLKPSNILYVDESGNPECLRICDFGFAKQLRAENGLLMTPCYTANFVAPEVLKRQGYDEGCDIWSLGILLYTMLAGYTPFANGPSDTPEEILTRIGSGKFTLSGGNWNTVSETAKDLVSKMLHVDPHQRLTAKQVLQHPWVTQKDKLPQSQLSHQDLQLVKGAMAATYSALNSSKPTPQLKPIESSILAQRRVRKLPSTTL
Aurora kinase B (Homo sapiens), sequence (Q96GD4 whole entry): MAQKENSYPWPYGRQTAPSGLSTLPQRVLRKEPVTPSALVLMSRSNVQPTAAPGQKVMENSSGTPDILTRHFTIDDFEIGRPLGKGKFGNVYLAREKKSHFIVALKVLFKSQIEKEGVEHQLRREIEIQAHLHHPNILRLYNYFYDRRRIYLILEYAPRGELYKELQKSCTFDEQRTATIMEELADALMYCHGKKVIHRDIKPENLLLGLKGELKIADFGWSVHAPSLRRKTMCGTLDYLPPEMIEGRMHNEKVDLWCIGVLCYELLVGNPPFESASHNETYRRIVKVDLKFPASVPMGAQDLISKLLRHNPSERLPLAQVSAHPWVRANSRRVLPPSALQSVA
MAP/microtubule affinity-regulating kinase 3 (Homo sapiens), sequence (P27448 whole entry, looked up): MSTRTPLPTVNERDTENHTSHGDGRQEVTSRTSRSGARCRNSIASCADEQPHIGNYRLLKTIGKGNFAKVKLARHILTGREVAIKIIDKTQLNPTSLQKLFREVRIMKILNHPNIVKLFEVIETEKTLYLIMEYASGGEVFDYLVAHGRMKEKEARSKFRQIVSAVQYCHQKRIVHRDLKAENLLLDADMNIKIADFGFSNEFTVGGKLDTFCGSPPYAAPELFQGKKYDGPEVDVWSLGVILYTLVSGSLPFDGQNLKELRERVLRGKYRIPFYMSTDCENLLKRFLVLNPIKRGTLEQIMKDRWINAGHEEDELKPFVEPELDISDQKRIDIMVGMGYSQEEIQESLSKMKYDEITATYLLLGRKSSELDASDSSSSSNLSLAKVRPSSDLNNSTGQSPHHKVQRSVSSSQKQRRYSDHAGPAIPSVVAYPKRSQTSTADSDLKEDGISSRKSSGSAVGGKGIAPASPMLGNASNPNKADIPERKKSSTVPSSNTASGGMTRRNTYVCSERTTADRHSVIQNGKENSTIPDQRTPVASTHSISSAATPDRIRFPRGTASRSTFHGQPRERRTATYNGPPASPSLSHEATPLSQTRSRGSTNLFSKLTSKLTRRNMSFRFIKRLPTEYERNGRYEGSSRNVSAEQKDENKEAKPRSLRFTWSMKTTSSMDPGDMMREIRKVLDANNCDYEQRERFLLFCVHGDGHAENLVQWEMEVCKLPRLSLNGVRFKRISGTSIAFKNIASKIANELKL

c1nc(N2CCOCC2)c2nc[nH]c2n1
inhibition [1]: 96%

NCC1CN(c2ncnc3[nH]c4cnccc4c23)CCO1 (centres undefined)
inhibition [2]: 91%

NCCc1ccc(-c2ncnc3[nH]cnc23)cc1
inhibition [3]: 91%

COC(=O)c1cnc(Nc2cnc(C#N)cn2)cc1NCC1CCNCC1
inhibition [4]: 0.5%
inhibition [5]: 37%

NCC1CCN(c2ncnc3[nH]ccc23)CC1
inhibition [6]: 43%
inhibition [7]: 69%
inhibition [8]: 76%

CNCc1ccc(-c2ncnc3[nH]cnc23)cc1
inhibition [9]: 0%
